Measurements as given in ChEMBL document CHEMBL3885881, “DrugMatrix”.

Organism: Rattus norvegicus
Assay: DrugMatrix - Regimen: Daily Repeat
Assay type: toxicity, organism-based, Sprague-Dawley
Design: regimen Daily Repeat, gender Male, age 6-8 weeks
Settings: in vivo, po, 25 mg/kg, route oral GAVAGE, dose level Low, vehicle .5 % CMC; for ABSOLUTE BASOPHIL / ABSOLUTE EOSINOPHIL / ABSOLUTE LYMPHOCYTE / ABSOLUTE MONOCYTE / ABSOLUTE SEGMENTED NEUTROPHIL / BASOPHIL / EOSINOPHIL / ERYTHROCYTE COUNT / HEMATOCRIT / HEMOGLOBIN / LEUKOCYTE COUNT / LYMPHOCYTE / MEAN CORPUSCULAR HEMOGLOBIN / MEAN CORPUSCULAR HEMOGLOBIN CONCENTRATION / MEAN CORPUSCULAR VOLUME / MONOCYTE / NEUTROPHIL / NUCLEATED RED BLOOD CELLS / PLATELET COUNT: tissue Blood; for ALANINE AMINOTRANSFERASE / ALBUMIN / ALKALINE PHOSPHATASE / ASPARTATE AMINOTRANSFERASE / BLOOD UREA NITROGEN / CARBON DIOXIDE / CHLORIDE / CHOLESTEROL / CREATINE PHOSPHOKINASE / CREATININE / GLUCOSE / LACTATE DEHYDROGENASE / LIPASE / PHOSPHORUS / POTASSIUM / SODIUM / TOTAL BILIRUBIN / TOTAL PROTEIN / URIC ACID: tissue Plasma

## COC(=O)Nc1nc2ccc([S+]([O-])c3ccccc3)cc2[nH]1 (stereo unspecified) [OXFENDAZOLE]
72 h, time 3 day
  ABSOLUTE BASOPHIL: 0 CELLS/uL
  ABSOLUTE EOSINOPHIL: 48 CELLS/uL
  ABSOLUTE LYMPHOCYTE: 11822 CELLS/uL
  ABSOLUTE MONOCYTE: 187.33 CELLS/uL
  ABSOLUTE SEGMENTED NEUTROPHIL: 2342.67 CELLS/uL
  BASOPHIL: 0%
  EOSINOPHIL: 0.33%
  ERYTHROCYTE COUNT: 6.05 x10E6/uL
  HEMATOCRIT: 36.2%
  HEMOGLOBIN: 13.87 G/DL
  LEUKOCYTE COUNT: 14.4 x10E3/uL
  LYMPHOCYTE: 82%
  MEAN CORPUSCULAR HEMOGLOBIN: 22.93 pg
  MEAN CORPUSCULAR HEMOGLOBIN CONCENTRATION: 38.33 G/DL
  MEAN CORPUSCULAR VOLUME: 59.8 fL
  MONOCYTE: 1.33%
  NEUTROPHIL: 16.33%
  NUCLEATED RED BLOOD CELLS: 0 /100WBC
  PLATELET COUNT: 1268.67 x10E3/uL
  ALANINE AMINOTRANSFERASE: 56 u/L
  ALBUMIN: 4.13 G/DL
  ALKALINE PHOSPHATASE: 355 u/L
  ASPARTATE AMINOTRANSFERASE: 78.67 u/L
  BLOOD UREA NITROGEN: 14 mg/dL
  CARBON DIOXIDE: 25 mmol/L
  CHLORIDE: 99 MEQ/L
  CHOLESTEROL: 78.67 mg/dL
  CREATINE PHOSPHOKINASE: 173.33 u/L
  CREATININE: 0.15 mg/dL
  GLUCOSE: 161.67 mg/dL
  LACTATE DEHYDROGENASE: 153 u/L
  LIPASE: 10 u/L
  PHOSPHORUS: 13.1 mg/dL
  POTASSIUM: 8.18 MEQ/L
  SODIUM: 142.9 MEQ/L
  TOTAL BILIRUBIN: 0.2 mg/dL
  TOTAL PROTEIN: 5.77 G/DL
  URIC ACID: 2.07 mg/dL
120 h, time 5 day
  ABSOLUTE BASOPHIL: 0 CELLS/uL
  ABSOLUTE EOSINOPHIL: 0 CELLS/uL
  ABSOLUTE LYMPHOCYTE: 12550 CELLS/uL
  ABSOLUTE MONOCYTE: 0 CELLS/uL
  ABSOLUTE SEGMENTED NEUTROPHIL: 983.33 CELLS/uL
  BASOPHIL: 0%
  EOSINOPHIL: 0%
  ERYTHROCYTE COUNT: 5.35 x10E6/uL
  HEMATOCRIT: 31.93%
  HEMOGLOBIN: 12.77 G/DL
  LEUKOCYTE COUNT: 13.53 x10E3/uL
  LYMPHOCYTE: 93%
  MEAN CORPUSCULAR HEMOGLOBIN: 23.9 pg
  MEAN CORPUSCULAR HEMOGLOBIN CONCENTRATION: 40 G/DL
  MEAN CORPUSCULAR VOLUME: 59.73 fL
  MONOCYTE: 0%
  NEUTROPHIL: 7%
  NUCLEATED RED BLOOD CELLS: 0 /100WBC
  PLATELET COUNT: 856.67 x10E3/uL
  ALANINE AMINOTRANSFERASE: 57.67 u/L
  ALBUMIN: 4.17 G/DL
  ALKALINE PHOSPHATASE: 330.67 u/L
  ASPARTATE AMINOTRANSFERASE: 89 u/L
  BLOOD UREA NITROGEN: 16 mg/dL
  CARBON DIOXIDE: 24 mmol/L
  CHLORIDE: 100.67 MEQ/L
  CHOLESTEROL: 74 mg/dL
  CREATINE PHOSPHOKINASE: 346.33 u/L
  CREATININE: 0.21 mg/dL
  GLUCOSE: 161.67 mg/dL
  LACTATE DEHYDROGENASE: 356.67 u/L
  LIPASE: 9 u/L
  PHOSPHORUS: 12.83 mg/dL
  POTASSIUM: 7.04 MEQ/L
  SODIUM: 141.83 MEQ/L
  TOTAL BILIRUBIN: 0.2 mg/dL
  TOTAL PROTEIN: 5.9 G/DL
  URIC ACID: 2.33 mg/dL
